Experimental data: PubChem BioAssay AID2060497 (Molecular Pharmacology Branch, DTP, NCI, 2025)

Tested on: 317291-083-R-J1-PDC complex spheroids, viability
Experiment: Anticancer human tumor 317291-083-R-J1-PDC patient-derived soft tissue sarcoma cell line growth inhibition [GQUAD]
Conditions: for IC50: curve of first compound; for viability, T/C: stronger effect = lower value
Source text: DNA G-quadruplex Stabilizer Agents in Combinations in Complex Spheroids
A high-throughput screen of multi-cell type tumor spheroids was designed to identify active combinations of DNA G-quadruplex stabilizer agents and targeted small molecules. Complex spheroids include a stromal component modeled by human endothelial cells (HUVEC) and fibroblasts modeled by human mesenchymal stem cells (MSCs). The concentration ranges selected for each drug and investigational agent were based upon clinically achievable concentrations if the clinical Cmax of the agent was known.
Compounds. The drugs and investigational agents: pidnarulex (CX-5461; NSC782164), APTO-253 (NSC789042), BRACO-19 (NSC847499), peposertib (NSC802822), ceralasertib (NSC780249), elimusertib (NSC800525), camonsertib (NSC841442), AZD-1390 (NSC803789), olaparib (NSC753686), talazoparib (NSC767125), ART-558 (NSC835418), sotorasib (NSC818433), MRTX-1133 (NSC836407), SN-38 (NSC673596), topotecan (NSC609699), etoposide (NSC141540), doxorubicin (NSC123127), gemcitabine (NSC613327), 5-fluorouracil (NSC19893), paclitaxel (NSC125973), vemurafenib (NSC761431), panobinostat (NSC761190), R-306465 (JNJ-16241199; NSC773264), adavosertib (NSC754352), TP-3654 (NSC805149), carboplatin (NSC241240), KSQ-4279 (NSC840948), and staurosporine (NSC755774) were obtained from the National Cancer Institute (NCI) Developmental Therapeutics Program Chemical Repository (34). The FDA-approved anticancer drug set is available from the NCI Developmental Therapeutics Program. […] The stock solutions were prepared in dimethyl sulfoxide (DMSO, Sigma-Aldrich, St. Louis, MO, cat. D2650) at 800-fold the tested concentration and stored at -70 degrees C prior to their use. All drugs and investigational agents were tested over a range starting from a high concentration at or near the clinical Cmax and decreasing in half-log increments. If the clinical Cmax for an agent had not been determined, the highest concentration tested was 10 microM.
2.3 Cell Culture. All cells were maintained in an incubator at 37 degrees C and 5% CO2 with 95% humidity. The PDC lines were cultured according to standard operating procedures established by the NCI PDMR. All PDCs were thawed and cultured in Matrigel-coated flasks prepared with a working solution of 1X Ham's F-12 nutrient mix, without supplementation (Invitrogen, cat. 11765054), 100 U/mL penicillin-streptomycin (Invitrogen, cat. 15140122), and 2.5% Matrigel (Corning Inc., cat. 354248) for the first three passages. The 857933-349-R-J2-PDC line was cultured in 6C/Colon 1B media, which includes advanced DMEM/F-12 (Thermo Fisher Scientific, cat. 12634028), 10 mM HEPES (Thermo Fisher Scientific, cat. 15630080), 1X GlutaMAX supplement (Thermo Fisher Scientific, cat. 35050061), 0.1 mg/mL primocin (InvivoGen, cat. ant-pm-2), 10% defined fetal bovine serum, heat inactivated (HyClone Laboratories Inc., cat. SH30070.03HI), 50% L-WRN conditioned media (ATCC, cat. CRL-3276), 1.25 mM N-Acetyl-L-cysteine (Sigma-Aldrich, cat. A9165), 10 mM nicotinamide (Sigma-Aldrich, cat. N0636), 1X B-27 supplement (Thermo Fisher Scientific, cat. 17504044), 1X N-2 supplement (Thermo Fisher Scientific, cat. 17502048), 10 microM Y-27632 dihydrochloride (Tocris Bioscience, cat. 1254), and 50 ng/mL human EGF recombinant protein (Thermo Fisher Scientific, cat. PHG0311). The 485176-168-R4-J1-PDC line was cultured in Panc media, which includes all 6C/Colon 1B media components plus 100 ng/mL human FGF-10 (Thermo Fisher Scientific, cat. 100-26), 500 nM SB-431542 (Selleckchem, cat. S1067), and gastrin (Tocris, cat. 3006).
[…]

[1] = second compound 0.0316 µM, first compound 0.0316 µM
[2] = second compound 0.0316 µM, first compound 0.316 µM
[3] = second compound 0.1 µM, first compound 0.0316 µM
[4] = second compound 0.1 µM, first compound 0.316 µM
[5] = second compound 0.316 µM, first compound 0.0316 µM
[6] = second compound 0.316 µM, first compound 0.316 µM
[7] = second compound 1 µM, first compound 0.0316 µM
[8] = second compound 1 µM, first compound 0.316 µM
[9] = second compound 3.16 µM, first compound 0.0316 µM
[10] = second compound 3.16 µM, first compound 0.316 µM
[11] = second compound 10 µM, first compound 0.0316 µM
[12] = second compound 10 µM, first compound 0.316 µM
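Note: spheroids exposed to compounds for one week before readout.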
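Throughout, for viability, T/C: percent viability relative to DMSO vehicle wells taken as 100%.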

SMILES: COc1cc(C2c3cc4c(cc3C(OC3OC5COC(C)OC5C(O)C3O)C3COC(=O)C23)OCO4)cc(OC)c1O (centres undefined) + CN(C)c1ccc(Nc2c3ccc(NC(=O)CCN4CCCC4)cc3nc3cc(NC(=O)CCN4CCCC4)ccc23)cc1
- IC50 (second compound 0.0316 µM): 310 nM
- IC50 (second compound 0.1 µM): 357 nM
- IC50 (second compound 0.316 µM): 283 nM
- IC50 (second compound 1 µM): 55.4 nM
- IC50 (second compound 3.16 µM): < 31.6 nM
- IC50 (second compound 10 µM): < 31.6 nM
- viability, T/C [1]: 89.9%
- viability, T/C (second compound 0.0316 µM, first compound 0.1 µM): 82.2%
- viability, T/C [2]: 48.9%
- viability, T/C (second compound 0.0316 µM, first compound 1 µM): 26.8%
- viability, T/C (second compound 0.0316 µM, first compound 3.16 µM): 19.4%
- viability, T/C (second compound 0.0316 µM, first compound 10 µM): 21.7%
- viability, T/C [3]: 92.1%
- viability, T/C (second compound 0.1 µM, first compound 0.1 µM): 86%
- viability, T/C [4]: 50.4%
- viability, T/C (second compound 0.1 µM, first compound 1 µM): 29.6%
- viability, T/C (second compound 0.1 µM, first compound 3.16 µM): 15.7%
- viability, T/C (second compound 0.1 µM, first compound 10 µM): 18.1%
- viability, T/C [5]: 79.8%
- viability, T/C (second compound 0.316 µM, first compound 0.1 µM): 71.9%
- viability, T/C [6]: 46.8%
- viability, T/C (second compound 0.316 µM, first compound 1 µM): 26.1%
- viability, T/C (second compound 0.316 µM, first compound 3.16 µM): 20.1%
- viability, T/C (second compound 0.316 µM, first compound 10 µM): 12.3%
- viability, T/C [7]: 62.1%
- viability, T/C (second compound 1 µM, first compound 0.1 µM): 37.9%
- viability, T/C [8]: 20.7%
- viability, T/C (second compound 1 µM, first compound 1 µM): 15.7%
- viability, T/C (second compound 1 µM, first compound 3.16 µM): 13.5%
- viability, T/C (second compound 1 µM, first compound 10 µM): 7.56%
- viability, T/C [9]: 39%
- viability, T/C (second compound 3.16 µM, first compound 0.1 µM): 12.5%
- viability, T/C [10]: 21.5%
- viability, T/C (second compound 3.16 µM, first compound 1 µM): 9.89%
- viability, T/C (second compound 3.16 µM, first compound 3.16 µM): 8.39%
- viability, T/C (second compound 3.16 µM, first compound 10 µM): 6.12%
- viability, T/C [11]: 12.7%
- viability, T/C (second compound 10 µM, first compound 0.1 µM): 8.34%
- viability, T/C [12]: 4.76%
- viability, T/C (second compound 10 µM, first compound 1 µM): 7.68%
- viability, T/C (second compound 10 µM, first compound 3.16 µM): 5.05%
- viability, T/C (second compound 10 µM, first compound 10 µM): 0.99%

SMILES: Cn1ncnc1[C@H]1c2n[nH]c(=O)c3cc(F)cc(c23)N[C@@H]1c1ccc(F)cc1 + CN(C)c1ccc(Nc2c3ccc(NC(=O)CCN4CCCC4)cc3nc3cc(NC(=O)CCN4CCCC4)ccc23)cc1
- IC50 (second compound 0.0316 µM): > 316 nM
- IC50 (second compound 0.1 µM): > 316 nM
- IC50 (second compound 0.316 µM): 205 nM
- IC50 (second compound 1 µM): 14.9 nM
- IC50 (second compound 3.16 µM): < 0.999 nM
- IC50 (second compound 10 µM): < 0.999 nM
- viability, T/C (second compound 0.0316 µM, first compound 0.000999 µM): 112%
- viability, T/C (second compound 0.0316 µM, first compound 0.00316 µM): 94%
- viability, T/C (second compound 0.0316 µM, first compound 0.00999 µM): 85%
- viability, T/C [1]: 74.7%
- viability, T/C (second compound 0.0316 µM, first compound 0.0999 µM): 67.4%
- viability, T/C [2]: 66.6%
- viability, T/C (second compound 0.1 µM, first compound 0.000999 µM): 115%
- viability, T/C (second compound 0.1 µM, first compound 0.00316 µM): 87.6%
- viability, T/C (second compound 0.1 µM, first compound 0.00999 µM): 90.3%
- viability, T/C [3]: 87.6%
- viability, T/C (second compound 0.1 µM, first compound 0.0999 µM): 81.9%
- viability, T/C [4]: 65.3%
- viability, T/C (second compound 0.316 µM, first compound 0.000999 µM): 68.9%
- viability, T/C (second compound 0.316 µM, first compound 0.00316 µM): 79.3%
- viability, T/C (second compound 0.316 µM, first compound 0.00999 µM): 72.8%
- viability, T/C [5]: 61.9%
- viability, T/C (second compound 0.316 µM, first compound 0.0999 µM): 60.5%
- viability, T/C [6]: 44.6%
- viability, T/C (second compound 1 µM, first compound 0.000999 µM): 54.3%
- viability, T/C (second compound 1 µM, first compound 0.00316 µM): 49.3%
- viability, T/C (second compound 1 µM, first compound 0.00999 µM): 62.1%
- viability, T/C [7]: 34.1%
- viability, T/C (second compound 1 µM, first compound 0.0999 µM): 38.2%
- viability, T/C [8]: 47.9%
- viability, T/C (second compound 3.16 µM, first compound 0.000999 µM): 35.7%
- viability, T/C (second compound 3.16 µM, first compound 0.00316 µM): 24%
- viability, T/C (second compound 3.16 µM, first compound 0.00999 µM): 24.9%
- viability, T/C [9]: 18.5%
- viability, T/C (second compound 3.16 µM, first compound 0.0999 µM): 28.6%
- viability, T/C [10]: 17.7%
- viability, T/C (second compound 10 µM, first compound 0.000999 µM): 9.05%
- viability, T/C (second compound 10 µM, first compound 0.00316 µM): 13.8%
- viability, T/C (second compound 10 µM, first compound 0.00999 µM): 8.55%
- viability, T/C [11]: 12.2%
- viability, T/C (second compound 10 µM, first compound 0.0999 µM): 5.71%
- viability, T/C [12]: 8.04%
